Here are results for seven compounds from patent publication US11572344B2, “Cyanoaryl-aniline compounds for treatment of dermal disorders” (NFlection Therapeutics, Inc., priority 2018, dated 2023).

SMILES strings stand for the structures. Some results are limits rather than exact numbers.

The target in data set [1] is MEK1 (Homo sapiens (Human), UniProt Q02750). Briefly: MEK Inhibition Assay-2 (Z′-LYTE biochemical assay). The note with it: Z′-LYTE assay of Example 39; read-out: IC50 against MEK1. The procedure: MEK1 inhibitory activity of compounds were tested using the following procedure (protocol available at thermofisher.com/content/dam/LifeTech/migration/files/drug-discovery/pdfs.par.60256.file.dat/20130430%20ssbk %20customer %20protocol %20and %20assa y %20conditions.pdf). The Z′-LYTE biochemical assay (ThermoFisher) employs a fluorescence-based, coupled-enzyme format and is based on the differential sensitivity of phosphorylated and non-phosphorylated peptides to proteolytic cleavage.
Sequence of MEK1 (Q02750 whole entry): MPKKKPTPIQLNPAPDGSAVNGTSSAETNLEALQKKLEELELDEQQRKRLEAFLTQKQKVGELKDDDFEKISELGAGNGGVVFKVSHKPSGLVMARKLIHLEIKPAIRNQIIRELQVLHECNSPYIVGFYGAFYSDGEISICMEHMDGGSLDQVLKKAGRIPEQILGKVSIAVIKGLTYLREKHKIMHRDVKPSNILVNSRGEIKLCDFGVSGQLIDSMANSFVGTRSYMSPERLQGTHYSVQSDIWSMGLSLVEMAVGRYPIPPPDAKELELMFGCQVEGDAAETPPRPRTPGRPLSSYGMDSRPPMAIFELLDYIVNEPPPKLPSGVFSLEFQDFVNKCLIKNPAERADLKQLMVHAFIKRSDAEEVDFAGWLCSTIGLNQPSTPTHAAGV
Test compounds in 100% DMSO were screened in 1% DMSO (final) in the well. For 10 point titrations, 3-fold serial dilutions are conducted from the starting concentration of 30 μM.
After the 1 hour incubation, 5 μL of a 1:1024 dilution of Development Reagent A (available from Invitrogen, catalog no. PV3295) was added.
ATP solutions were diluted to a 4× working concentration in Kinase Buffer (50 mM HEPES pH 7.5, 0.01% BRIJ-35, 10 mM MgCl2, 1 mM EGTA). ATP Km apparent was previously determined using a Z′-LYTE assay. The Development Reagent was diluted in Development Buffer (available from Invitrogen, catalog no. P3127).
Assay Protocol: 2.5 μL of 4× test compound or 100 nL of 100× Test Compound plus 2.4 μL Kinase Buffer, 5 μL of the 2× Peptide/Kinase Mixture, 2.5 μL of 4×ATP Solution were added to the plates and placed on a shake plate for 30-seconds. The kinase reaction was allowed to proceed for 60-minute at room temperature, before 5 μL of Development Reagent Solution was added, and the mixture agitated for 30-seconds on a shake plate. The mixture was incubated for 60-minute at room temperature. Fluorescence was measured using a plate reader and the data were analyzed.
This control yielded 100% cleaved peptide in the Development Reaction. The 100% Phosphorylation Control, which consisted of a synthetically phosphorylated peptide of the same sequence as the peptide substrate, was designed to allow for the calculation of percent phosphorylation. This control yielded a very low percentage of cleaved peptide in the Development Reaction. The 0% Phosphorylation and 100% Phosphorylation Controls allow for the calculation of the percent phosphorylation achieved in a specific reaction well.
The minimum emission ratio in a screen was established by the 0% Inhibition Control, which contained active kinase. This control was designed to produce a 10-50% phosphorylated peptide in the Kinase Reaction. Cascade assays may produce up to 70% phosphorylated peptide.
A known inhibitor control standard curve, 10 point titration, was run for each individual kinase on the same plate as the kinase to ensure the kinase was inhibited within an expected IC50 range previously determined.
The following controls are prepared for each concentration of Test Compound assayed. […] The expected value for a non-interfering compound should be 100%. Any value outside of 90% to 110% was flagged. […] The expected value for a non-fluorescence compound should be 0%. Any value>20% was flagged.
The data in Table A was calculated. XLfit from IDBS was used. The dose response curve was curve fit to model number 205 (sigmoidal dose-response model).
Table 3 lists the MEK1 inhibition assay results of selected compounds according to the above procedure.

Data set [2] concerns HCT116 cells. The data set can be described thus: HCT116 (Kras) GI50 cell-based assay (Cell Titer-Glo). The note with it: Homo sapiens, HCT-116, 72 hours, read-out: Assay 3: HCT116 (Kras) GI50. The procedure:
(§1) Alternatively, the following procedure can be used to measure cell-based activity. Test compounds were dissolved in DMSO in 10 mM stock. Cell Titer-Glo® 2.0 Luminescent cell viability assay reagent was purchased from Promega (Madison, Wis.). A375 and HCT116 cell lines were purchased from American Type Culture Collection (Manassas, Va.). For A375 cells, cell culture media was DMEM+10% FBS. For HCT116 cells, cell culture media was McCoy's 5A+10% FBS. All media were supplemented with 100 μg/mL of penicillin, and 100 μg/mL of streptomycin. Cultures were maintained at 37° C. in a humidified atmosphere of 5% CO2 and 95% air.
(§2) Test compounds were diluted in DMSO solution with 10-dose and 3-fold dilutions in a source plate starting at 10 mM. 25 nL of each test compound was delivered from the source plate to each well of the 384-well cell culture plates (T=Final) by Echo 550. 25 μL of culture medium containing 2000 of A375 or HCT116 cells was added to each of the wells in duplicates of the cell culture plates (T=0 and T=Final). 25 μL of Cell Titer Glo 2.0 reagent was added to each well of cell culture plate (T=0). The contents were mixed on an orbital shaker for 2 min and incubated at room temperature for 15 min to stabilize luminescent signal. Luminescence was recorded by Envision 2104 Multilabel Reader (PerkinElmer, Santa Clara, Calif.). The number of viable cells in culture was determined based on quantitation of the ATP present in each culture well. The cells in cell culture plate (T=Final) were incubated with the compounds at 37° C., 5% CO2 for 72 hours. 25 μL of Cell Titer Glo 2.0 reagent was added to each well. The contents were mixed on an orbital shaker for 2 min and incubated at room temperature for 15 min to stabilize luminescent signal. Luminescence was recorded by Envision 2104 Multilabel Reader (PerkinElmer, Santa Clara, Calif.). The number of viable cells in culture was determined based on quantitation of the ATP present in each culture well. The GI50 curves were plotted using the GraphPad Prism 4 program based on a sigmoidal dose-response equation Y=Bottom+(Top-Bottom)/(1+10^((Log EC50−X)*HillSlope)). All parameters in the equation were calculated by GraphPad Prism 4 program. […] Accordingly, GI50 is the value of 10^X, where X was calculated by the Curve Fitting Equation when Y=50 using Excel.
Assay 3 is the HCT116 (Kras) GI50 (nM) assay as described in Example 41.
On the technique in general: Cellular ATP, detected with luciferase, serves as a proxy for viable cell number.

Data set [3] can be described thus: Liver S9 half-life stability assay. Type of data set: in vitro ADME. The note with it: human, liver S9 fraction, pH 7.4; 1 μM test compound, 2 mg/mL liver protein, 1 mM NADPH; read-out: Assay 4: liver S9 half-life. The procedure: Compounds can be assessed for metabolic stability in human skin by assessing their rate of disappearance from human S9 skin fraction. Similarly, compounds can be assessed for metabolic stability in human liver by assessing their rate of disappearance from human S9 liver fraction. The protocol below is used to assess the difference between skin and hepatic metabolism.
The assay was carried out in 96-well microtiter plates at 37° C. Reaction mixtures (25 μL) contained a final concentration of 1 μM test compound, 2 mg/mL liver or skin protein, and 1 mM NADPH in buffer (100 mM potassium phosphate, pH 7.4 buffer with 1 mM EDTA, 3 mM MgCl2). At each of the time points (0, 15, 30, and 60 minutes), 150 μL of quench solution (100% acetonitrile with 0.1% formic acid) with internal standard was transferred to each well. Besides the zero minute controls, mixtures containing the same components except the NADPH were also prepared as the negative control. Verapamil or testosterone was included as a positive control to verify assay performance. Plates were sealed and centrifuged at 4° C. for 15 minutes at 4000 rpm. The supernatant was transferred to fresh plates for LC/MS/MS analysis.
All samples were analyzed on LC/MS/MS using an AB Sciex API 4000 instrument, coupled to a Shimadzu LC-20AD LC Pump system. Analytical samples were separated using a Waters Atlantis T3 dC18 reverse phase HPLC column (20 mm×2.1 mm) at a flow rate of 0.5 mL/min. The mobile phase consisted of 0.1% formic acid in water (solvent A) and 0.1% formic acid in 100% acetonitrile (solvent B).
The extent of metabolism was calculated as the disappearance of the test compound, compared to the 0-min control reaction incubations. Initial rates were calculated for the compound concentration and used to determine t1/2 values and subsequently, the intrinsic clearance, CLint=(0.693) (1/t1/2 (min)) (mL incubation/mg of S9 protein).
Assay 4 is the liver S9 half-life stability assay as described in Example 42. A4 indicates a half life of greater than 50 min and less than or equal to 200 min and B4 indicates a half life of less than or equal to 50 minutes.

Data set [4] relates to A375 cells. Briefly: A375 (BRAF) GI50 cell-based assay (Cell Titer-Glo). The note with it: Homo sapiens, A-375, 72 hours, read-out: Assay 2: A375 (BRAF) GI50. The procedure: as §1, §2
Assay 2 is the A375 (BRAF) GI50 (nM) cell-based assay as described in Example 41.

The conditions of data set [5]: systemic MEK inhibitor; cited from earlier work.

For `N#Cc1ccc(C(=O)NC2CC2)c(Nc2ccc(I)cc2F)c1` [Compound 1.005], the IC50 – broadly, the concentration that gives 50% inhibition – in data set [1] was over 1500 nM.
Regarding `CONC(=O)c1ccc(C#N)cc1Nc1ccc(I)cc1F` [Compound 1.007], the GI50 (in general, the concentration that inhibits growth by half) in data set [2] fell in the range of 750 to 2000 nM; in data set [4] it was 500 to 1500 nM. Besides, the half-life – broadly, how long it takes for the measured level to halve – at 1 μM in data set [3] was at most 50 min.
Taken in the same sequence, the figures for `CCONC(=O)c1ccc(C#N)cc1Nc1ccc(I)cc1F` [Compound 1.008] were 750 to 2000 nM, 500 to 1500 nM and at most 50 min.
Turning to `CCCONC(=O)c1ccc(C#N)cc1Nc1ccc(I)cc1F` [Compound 1.009], the half-life at 1 μM in data set [3] is at most 50 min.
Take `N#Cc1ccc(C(=O)NO)c(Nc2ccc(I)cc2F)c1` [Compound 1.017, 4-Cyano-2-((2-fluoro-4-iodophenyl)amino)-N-hydroxybenzamide]: the IC50 in data set [1] is at most 150 nM.
On the same count and under the same terms, under `COC(=O)CCONC(=O)c1ccc(C#N)cc1Nc1ccc(I)cc1F` [Compound 1.022, Methyl 3-((4-cyano-2-((2-fluoro-4-iodophenyl)amino)benzamido)oxy) propanoate] stands over 1500 nM.
Turning to `O=C(NOC[C@H](O)CO)c1ccc(F)c(F)c1Nc1ccc(I)cc1F` [PD0325901], in data set [5], the “side effects in clinical trials” value is “neurological side effects associated with ataxia, confusion, and syncope”.
